In US11834453B2, “Substituted pyrimido[5,4-d]pyrimidines as HER2 inhibitors” (Array BioPharma Inc., priority 2020, dated 2023):
Read-outs that look alike come from different tables or passages of the source.

Columns and labels:
[1] = biological target: ErbB2 with Exon 20 YVMA insertion (HER2-YVMA) (Homo sapiens (Human), UniProt P04626, INS775YVMA); experiment: Cellular phosphorylation assay, constitutive ErbB2 phosphorylation (Y1196) in engineered NIH 3T3 cells, Assay 4; assay type: cell-based
How it was run: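 Engineered NIH 3T3 cells expressing HER2-YVMA treated with compounds 1 h at 37 °C, then formaldehyde-fixed and methanol-permeabilized. pErbB2 Y1196 detected by in-cell infrared immunofluorescence, normalized to GAPDH. IC50 from the normalized curves.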

[2] = biological target: EGFR wild type (EGFR WT) (Homo sapiens (Human), UniProt P00533); experiment: Cellular phosphorylation assay, EGF-stimulated EGFR phosphorylation in engineered NIH 3T3 cells, Phospho-EGFR DuoSet IC ELISA, Assay 5; assay type: cell-based
How it was run: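 NIH 3T3 cells expressing EGFR WT (20,000/well, attached overnight) were exposed to serially diluted compound for 1 h at 37 °C, then stimulated with 100 ng/ml rEGF for 10 min. Phospho-EGFR in lysates measured by sandwich ELISA optical density; IC50 from curves.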

[3] = biological target: EGFR (Homo sapiens (Human), UniProt P00533); experiment: ErbB enzyme assay (CisBio HTRF KinEASE-TK), Assay 3; assay type: biochemical
Sequence of EGFR (P00533 25-1210): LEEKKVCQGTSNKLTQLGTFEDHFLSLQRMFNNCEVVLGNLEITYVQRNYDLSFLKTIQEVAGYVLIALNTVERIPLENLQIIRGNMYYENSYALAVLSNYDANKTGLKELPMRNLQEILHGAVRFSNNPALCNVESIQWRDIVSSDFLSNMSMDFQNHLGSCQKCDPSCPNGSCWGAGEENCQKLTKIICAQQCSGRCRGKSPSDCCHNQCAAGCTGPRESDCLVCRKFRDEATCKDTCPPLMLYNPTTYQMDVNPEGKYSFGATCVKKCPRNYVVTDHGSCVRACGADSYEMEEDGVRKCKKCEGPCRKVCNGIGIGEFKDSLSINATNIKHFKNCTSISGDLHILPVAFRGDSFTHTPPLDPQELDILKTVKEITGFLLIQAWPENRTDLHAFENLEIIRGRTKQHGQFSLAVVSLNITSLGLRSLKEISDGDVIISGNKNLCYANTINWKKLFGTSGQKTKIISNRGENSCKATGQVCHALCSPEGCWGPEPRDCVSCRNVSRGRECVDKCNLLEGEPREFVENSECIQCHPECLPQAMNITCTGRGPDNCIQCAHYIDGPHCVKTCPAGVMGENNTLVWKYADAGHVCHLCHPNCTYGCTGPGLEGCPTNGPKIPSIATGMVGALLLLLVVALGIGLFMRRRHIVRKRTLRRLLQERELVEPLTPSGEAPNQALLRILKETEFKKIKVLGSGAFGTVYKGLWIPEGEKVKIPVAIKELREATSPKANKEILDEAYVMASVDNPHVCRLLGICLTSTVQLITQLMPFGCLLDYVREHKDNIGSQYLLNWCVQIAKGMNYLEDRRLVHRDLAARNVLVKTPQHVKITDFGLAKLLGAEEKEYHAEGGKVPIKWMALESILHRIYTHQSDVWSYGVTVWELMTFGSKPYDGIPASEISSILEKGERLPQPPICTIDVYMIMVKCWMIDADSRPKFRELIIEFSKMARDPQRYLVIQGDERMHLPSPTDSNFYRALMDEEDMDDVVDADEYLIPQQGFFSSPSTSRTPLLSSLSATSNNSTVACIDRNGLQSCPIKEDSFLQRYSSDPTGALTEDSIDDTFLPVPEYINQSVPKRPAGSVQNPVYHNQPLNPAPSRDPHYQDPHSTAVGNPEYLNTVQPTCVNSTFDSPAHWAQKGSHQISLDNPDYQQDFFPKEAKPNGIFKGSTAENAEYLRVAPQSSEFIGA
How it was run: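 Inhibition is measured as reduced peptide phosphorylation by HTRF KinEASE-TK at 1 mM ATP and 250 nM substrate, 30 min at 22 °C. Values are IC50s from a 4-parameter logistic fit.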

[4] = biological target: ErbB2 WT (Homo sapiens (Human), UniProt P04626); experiment: ErbB enzyme assay (CisBio HTRF KinEASE-TK), Assay 2; assay type: biochemical
Sequence of ErbB2 WT (P04626 23-1255): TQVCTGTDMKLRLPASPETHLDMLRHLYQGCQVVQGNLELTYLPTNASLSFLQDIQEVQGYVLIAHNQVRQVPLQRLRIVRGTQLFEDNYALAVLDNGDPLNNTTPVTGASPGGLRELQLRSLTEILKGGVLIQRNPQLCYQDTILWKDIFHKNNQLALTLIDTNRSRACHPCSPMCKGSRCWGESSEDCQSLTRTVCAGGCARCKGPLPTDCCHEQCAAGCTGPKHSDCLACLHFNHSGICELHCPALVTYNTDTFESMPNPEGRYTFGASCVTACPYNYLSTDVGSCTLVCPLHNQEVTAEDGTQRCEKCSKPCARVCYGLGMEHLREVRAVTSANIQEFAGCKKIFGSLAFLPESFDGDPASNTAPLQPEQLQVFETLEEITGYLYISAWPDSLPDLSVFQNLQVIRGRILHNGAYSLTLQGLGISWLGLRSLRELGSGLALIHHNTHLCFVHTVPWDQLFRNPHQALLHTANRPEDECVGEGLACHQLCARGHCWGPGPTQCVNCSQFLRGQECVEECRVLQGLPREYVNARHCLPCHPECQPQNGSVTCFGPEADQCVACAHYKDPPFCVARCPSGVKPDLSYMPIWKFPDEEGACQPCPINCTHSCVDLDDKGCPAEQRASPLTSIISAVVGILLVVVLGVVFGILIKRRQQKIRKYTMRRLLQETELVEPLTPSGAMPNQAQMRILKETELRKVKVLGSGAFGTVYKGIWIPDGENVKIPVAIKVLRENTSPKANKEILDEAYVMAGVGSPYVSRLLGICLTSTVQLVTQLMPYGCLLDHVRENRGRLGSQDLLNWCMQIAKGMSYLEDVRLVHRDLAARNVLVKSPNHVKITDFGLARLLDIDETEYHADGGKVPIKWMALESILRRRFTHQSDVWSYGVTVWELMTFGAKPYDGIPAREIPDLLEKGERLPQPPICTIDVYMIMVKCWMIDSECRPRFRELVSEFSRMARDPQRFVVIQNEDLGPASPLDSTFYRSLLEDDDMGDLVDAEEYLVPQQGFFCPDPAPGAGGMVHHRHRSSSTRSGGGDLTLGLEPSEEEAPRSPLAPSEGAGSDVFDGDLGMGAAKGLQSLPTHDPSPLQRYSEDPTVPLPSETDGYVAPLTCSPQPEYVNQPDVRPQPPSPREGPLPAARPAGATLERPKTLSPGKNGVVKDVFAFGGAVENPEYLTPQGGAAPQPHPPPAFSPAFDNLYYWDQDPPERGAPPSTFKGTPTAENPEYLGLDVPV
How it was run: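 ErbB2 phosphorylates 250 nM biotin-TK substrate at 1 mM ATP in 25 mM HEPES pH 7.4, 10 mM MgCl2, 0.01% Triton X-100 and 2% DMSO, for 30 min at 22 °C. Product is detected by HTRF with Sa-XL665 and TK-Ab-Cryptate. Percent of control is set by DMSO-only wells and pre-quenched wells.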

[5] = biological target: ErbB2 insYVMA (HER2-YVMA, SEQ ID NO: 2) (Homo sapiens, UniProt P04626, INS775YVMA/P1170A); experiment: biochemical; details: ErbB2 insYVMA enzyme assay
Sequence of ErbB2 insYVMA (HER2-YVMA, SEQ ID NO: 2) (P04626 with tags, fused parts or gaps INS775YVMA/P1170A limits assumed): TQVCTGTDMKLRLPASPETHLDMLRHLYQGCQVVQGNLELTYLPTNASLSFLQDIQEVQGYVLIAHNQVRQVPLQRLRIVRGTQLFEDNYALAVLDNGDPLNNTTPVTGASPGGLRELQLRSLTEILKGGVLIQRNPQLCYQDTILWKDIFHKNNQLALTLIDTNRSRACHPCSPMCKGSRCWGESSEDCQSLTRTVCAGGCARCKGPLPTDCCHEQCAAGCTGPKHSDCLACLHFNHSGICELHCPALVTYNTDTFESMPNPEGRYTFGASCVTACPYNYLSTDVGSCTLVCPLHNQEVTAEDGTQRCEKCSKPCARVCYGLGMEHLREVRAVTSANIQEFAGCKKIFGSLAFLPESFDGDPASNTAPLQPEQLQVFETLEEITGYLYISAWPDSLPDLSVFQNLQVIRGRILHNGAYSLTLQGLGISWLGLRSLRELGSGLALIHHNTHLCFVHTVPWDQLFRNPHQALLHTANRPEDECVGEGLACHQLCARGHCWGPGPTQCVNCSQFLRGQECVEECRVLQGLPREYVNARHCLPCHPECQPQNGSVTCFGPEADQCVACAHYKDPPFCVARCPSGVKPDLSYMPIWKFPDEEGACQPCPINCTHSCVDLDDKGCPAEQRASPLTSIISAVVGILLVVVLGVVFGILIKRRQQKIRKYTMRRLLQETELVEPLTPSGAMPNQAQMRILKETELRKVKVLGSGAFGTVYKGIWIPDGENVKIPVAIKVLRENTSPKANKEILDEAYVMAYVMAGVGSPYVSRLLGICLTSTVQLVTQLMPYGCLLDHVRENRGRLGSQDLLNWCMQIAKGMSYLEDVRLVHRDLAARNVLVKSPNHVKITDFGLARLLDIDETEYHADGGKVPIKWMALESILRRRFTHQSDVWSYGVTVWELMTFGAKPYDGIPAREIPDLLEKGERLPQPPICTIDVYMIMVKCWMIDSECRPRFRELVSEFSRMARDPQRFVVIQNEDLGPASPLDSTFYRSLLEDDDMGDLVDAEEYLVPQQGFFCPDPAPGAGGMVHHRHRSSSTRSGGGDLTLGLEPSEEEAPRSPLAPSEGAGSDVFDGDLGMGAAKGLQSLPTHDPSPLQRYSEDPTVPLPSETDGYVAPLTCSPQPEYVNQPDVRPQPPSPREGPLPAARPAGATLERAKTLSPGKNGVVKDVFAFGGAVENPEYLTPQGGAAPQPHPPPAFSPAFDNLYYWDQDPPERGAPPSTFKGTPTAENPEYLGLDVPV

Sequence of ErbB2 with Exon 20 YVMA insertion (HER2-YVMA) (P04626 other isoform, or with tags, fused parts or gaps ins YVMA behind 775): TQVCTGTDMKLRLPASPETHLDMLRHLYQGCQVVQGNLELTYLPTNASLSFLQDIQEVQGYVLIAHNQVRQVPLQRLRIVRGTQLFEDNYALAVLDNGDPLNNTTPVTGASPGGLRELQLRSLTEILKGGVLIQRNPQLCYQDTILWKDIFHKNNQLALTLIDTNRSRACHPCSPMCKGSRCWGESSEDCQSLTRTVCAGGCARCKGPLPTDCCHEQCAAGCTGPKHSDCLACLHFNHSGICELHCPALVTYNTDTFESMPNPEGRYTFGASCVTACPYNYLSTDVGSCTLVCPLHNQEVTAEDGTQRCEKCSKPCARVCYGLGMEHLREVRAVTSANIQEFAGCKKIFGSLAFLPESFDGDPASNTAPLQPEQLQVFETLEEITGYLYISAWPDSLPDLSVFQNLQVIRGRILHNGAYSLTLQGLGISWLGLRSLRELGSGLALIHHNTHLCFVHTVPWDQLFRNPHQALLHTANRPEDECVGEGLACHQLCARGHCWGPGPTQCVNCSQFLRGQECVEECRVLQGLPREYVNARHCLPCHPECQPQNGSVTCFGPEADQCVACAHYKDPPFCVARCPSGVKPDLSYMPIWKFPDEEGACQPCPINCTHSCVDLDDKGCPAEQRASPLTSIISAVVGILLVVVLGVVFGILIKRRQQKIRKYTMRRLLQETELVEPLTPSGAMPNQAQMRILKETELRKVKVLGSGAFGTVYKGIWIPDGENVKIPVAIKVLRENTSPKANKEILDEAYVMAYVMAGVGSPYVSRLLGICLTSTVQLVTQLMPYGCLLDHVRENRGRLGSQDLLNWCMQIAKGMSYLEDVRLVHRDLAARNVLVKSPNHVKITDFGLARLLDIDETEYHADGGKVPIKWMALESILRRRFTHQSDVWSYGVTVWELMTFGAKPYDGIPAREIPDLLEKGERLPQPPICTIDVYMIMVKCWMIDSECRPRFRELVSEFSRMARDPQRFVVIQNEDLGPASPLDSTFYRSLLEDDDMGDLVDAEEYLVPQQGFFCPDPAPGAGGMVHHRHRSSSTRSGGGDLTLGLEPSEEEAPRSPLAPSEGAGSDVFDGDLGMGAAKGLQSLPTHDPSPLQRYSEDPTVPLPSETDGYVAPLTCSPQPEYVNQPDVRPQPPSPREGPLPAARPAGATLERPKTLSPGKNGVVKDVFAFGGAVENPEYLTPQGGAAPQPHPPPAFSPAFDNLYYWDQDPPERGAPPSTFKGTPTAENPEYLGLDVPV

Row | Compound | IC50 [1] | IC50 [2] | IC50 [3] | IC50 [4] | IC50 ([5]; Assay 1 IC50 (nM)) | IC50 ([5]; read-out: Assay 1 IC50)
1 | CON1CCN(c2ncc3ncnc(Nc4ccc(Oc5ccc6c(c5)ncn6C)c(C)c4F)c3n2)CC1 [Example 142, N-(2-fluoro-3-methyl-4-((1-methyl-1H-benzo[d]imidazol-5-yl)oxy)phenyl)-6-(4-methoxypiperazin-1-yl)pyrimido[5,4-d]pyrimidin-4-amine 2,2,2-trifluoroacetate] | 72.7 nM | ≥ 5000 nM | ≥ 10000 nM | 50.7 nM | 24.2 nM | 
2 | Cc1c(Oc2ccn3ncnc3c2)ccc(Nc2ncnc3cnc(N4CC[C@@H](O)C4)nc23)c1F [Example 312] | 1590 nM | ≥ 5000 nM | ≥ 10000 nM | 54.2 nM |  | 38.9 nM
3 | Cc1cc(Nc2ncnc3cnc(OCC4(F)CNC4)nc23)ccc1Oc1ccc2c(c1)ncn2C [Example 291] | 84.1 nM | ≥ 5000 nM | ≥ 10000 nM | 446 nM |  | 76.2 nM
4 | Cc1cc(Nc2ncnc3cnc(N4CCC45COC5)nc23)ccc1Oc1ccn2ncnc2c1 [Example 369] | 151 nM | ≥ 5000 nM | 3870 nM | 37.1 nM |  | 7.3 nM
5 | N#CC[C@@H]1CCN(c2ncc3ncnc(Nc4ccc(Oc5ccn6ncnc6c5)c(Cl)c4)c3n2)C1 [Example 416] | 27.1 nM | ≥ 5000 nM | 2240 nM | 21.5 nM |  | 11.3 nM
6 | Cc1cc(Nc2ncnc3cnc(N(C)CC(C)(C)CO)nc23)ccc1Oc1ccc2c(c1)ncn2C [Example 364] | 25.7 nM | ≥ 5000 nM | 2680 nM | 29.5 nM |  | 32.8 nM
7 | Cc1cc(Nc2ncnc3cnc(N4C[C@@H]5C[C@H]4C[C@H]5O)nc23)ccc1Oc1ccc2c(c1)ncn2C [Example 471] | 42.5 nM | ≥ 5000 nM | ≥ 10000 nM | 49.4 nM |  | 7.1 nM
8 | Clc1cc(Nc2ncnc3cnc(N4CCOCC4)nc23)ccc1Oc1ccn2ncnc2c1 [Example 409] | 43 nM | ≥ 5000 nM | 3530 nM | 32.1 nM |  | 18.3 nM
9 | CN(CC(C)(C)O)c1ncc2ncnc(Nc3ccc(Oc4ccc5c(c4)ncn5C)c(Cl)c3)c2n1 [Example 456] | 47.6 nM | ≥ 5000 nM | 4520 nM | 69.8 nM |  | 25.9 nM
10 | Cc1cc(Nc2ncnc3cnc(N4CCOCC4)nc23)ccc1Oc1ccn2ncnc2c1 [Example 412] | 69.7 nM | ≥ 5000 nM | ≥ 10000 nM | 70.5 nM |  | 25.9 nM
11 | Cc1cc(Nc2ncnc3cnc(O[C@H]4CN(C)CC[C@H]4F)nc23)ccc1Oc1ccc2c(c1)ncn2C [Example 293] | 81.2 nM | ≥ 5000 nM | ≥ 10000 nM | 568 nM |  | 87.7 nM
12 | Cc1c(Oc2ccn3ncnc3c2)ccc(Nc2ncnc3cnc(N4CC[C@H]4C(C)(C)O)nc23)c1F [Example 309] | 5000 nM | ≥ 5000 nM | ≥ 10000 nM | 223 nM |  | 184 nM
13 | Cc1cc(Nc2ncnc3cnc(N4CCOC5(CC5)C4)nc23)ccc1Oc1ccc2c(c1)ncn2C [Example 58, N-(3-methyl-4-((1-methyl-1H-benzo[d]imidazol-5-yl)oxy)phenyl)-6-(4-oxa-7-azaspiro[2.5]octan-7-yl)pyrimido[5,4-d]pyrimidin-4-amine] | 10.6 nM | ≥ 5000 nM | ≥ 10000 nM | 123 nM |  | 62.5 nM
14 | Cc1cc(Nc2ncnc3cnc(N4CC5(COC5)C4)nc23)ccc1Oc1ccc2c(c1)ncn2C [Example 26, N-(3-methyl-4-((1-methyl-1H-benzo[d]imidazol-5-yl)oxy)phenyl)-6-(2-oxa-6-azaspiro[3.3]heptan-6-yl)pyrimido[5,4-d]pyrimidin-4-amine] | 62.2 nM | ≥ 5000 nM | ≥ 10000 nM | 507 nM |  | 85.6 nM
15 | Cc1cc(Nc2ncnc3cnc(N4CC5(CCC5O)C4)nc23)ccc1Oc1ccc2c(c1)ncn2C (stereo not shown) [Example 465] | 67.8 nM | ≥ 5000 nM | ≥ 10000 nM | 47.6 nM |  | 44.3 nM
16 | CON1CCN(c2ncc3ncnc(Nc4cc(C)c(Oc5ccc6c(c5)ncn6C)cc4F)c3n2)CC1 [Example 486] | 133 nM | ≥ 5000 nM | ≥ 10000 nM | 138 nM |  | 29.6 nM
17 | Cc1cc(Nc2ncnc3cnc(O[C@H]4CNCC[C@@H]4F)nc23)ccc1Oc1ccc2c(c1)ncn2C [Example 289] | 73.9 nM | ≥ 5000 nM | ≥ 10000 nM | 584 nM |  | 109 nM
18 | Clc1cc(Nc2ncnc3cnc(N4C[C@H]5C[C@@H]4CO5)nc23)ccc1Oc1ccn2ncnc2c1 [Example 418] | 229 nM | ≥ 5000 nM | ≥ 10000 nM | 103 nM |  | 42.8 nM
19 | CCON1CCN(c2ncc3ncnc(Nc4ccc(Oc5ccc6c(c5)ncn6C)c(C)c4)c3n2)CC1 [Example 483] | 58.6 nM | ≥ 5000 nM | ≥ 10000 nM | 262 nM |  | 76.5 nM
20 | Cc1cc(Nc2ncnc3cnc(NC4CCCC4)nc23)ccc1Oc1ccc2c(c1)ncn2C [Example 273] | 33.5 nM | ≥ 5000 nM | ≥ 10000 nM | 202 nM |  | 95 nM
21 | Cc1cc(Nc2ncnc3cnc(N4CC[C@H]4C(F)F)nc23)ccc1Oc1ccn2ncnc2c1 [Example 390] | 108 nM | ≥ 5000 nM | 3980 nM | 44.6 nM |  | 24.8 nM
22 | CON1CCN(c2ncc3ncnc(Nc4ccc(Oc5ccn6ncnc6c5)c(C)c4F)c3n2)CC1 [Example 95, N-(4-([1,2,4]triazolo[1,5-a]pyridin-7-yloxy)-2-fluoro-3-methylphenyl)-6-(4-methoxypiperazin-1-yl)pyrimido[5,4-d]pyrimidin-4-amine] | 179 nM | ≥ 5000 nM | ≥ 10000 nM | 95.1 nM |  | 25.2 nM
23 | CN(c1ncc2ncnc(Nc3ccc(Oc4ccn5ncnc5c4)c(Cl)c3)c2n1)[C@H]1CCOC1 [Example 133, (S)—N8-(4-([1,2,4]triazolo[1,5-a]pyridin-7-yloxy)-3-chlorophenyl)-N2-methyl-N2-(tetrahydrofuran-3-yl)pyrimido[5,4-d]pyrimidine-2,8-diamine] | 55.4 nM | ≥ 5000 nM | 5720 nM | 26.2 nM |  | 10.8 nM
24 | Clc1cc(Nc2ncnc3cnc(N4C5CCC4COC5)nc23)ccc1Oc1ccn2ncnc2c1 [Example 322] | 102 nM | ≥ 5000 nM | ≥ 10000 nM | 62.1 nM |  | 21.6 nM
25 | CON1CCC(Nc2ncc3ncnc(Nc4ccc(Oc5ccc6c(c5)ncn6C)c(C)c4)c3n2)C1 (stereo not shown) [Example 220, N2-(1-methoxpyrrolidin-3-yl)-N8-(3-methyl-4-((1-methyl-1H-benzo[d]imidazol-5-yl)oxy)phenyl)pyrimido[5,4-d]pyrimidine-2,8-diamine] | 8 nM | ≥ 5000 nM | 1520 nM | 12.1 nM |  | 9.3 nM
26 | Clc1cc(Nc2ncnc3cnc(N4CC5CCC(C4)O5)nc23)ccc1Oc1ccn2ncnc2c1 [Example 383] | 4140 nM | ≥ 5000 nM | ≥ 10000 nM | 75.3 nM |  | 56.3 nM
